Results taken from patent US4568690A, “1-Methyl-5-p-methylbenzoylpyrrole-2-acetamidoacetanilides with antiinflammatory, analgesic, antipyretic and anti-platelet aggregant activity” (priority 1983, dated 1986).

Assays:
[1] = test system: gastric mucosa; assay: gastric tolerance (ulcerogenic activity); details: orally, four consecutive days; for Mean number severity: severity scale 0-5
Method: This was studied by testing ulcerogenic activity in male Wistar rats weighing an average of 180 g, using groups of 10 animals each. Three doses of each substance were used, and one group of animals was treated with vehicle only, in a volume of 10 ml/g body weight. Each dose was administered orally for four consecutive days, and the rats were killed on the fifth day and autopsied. The ulcerogenic effect was evaluated on the following scale:
(1) each hemorrhage point >1 mm was evaluated as 1 lesion
(2) the hemorrhage points <1 were counted as follows:
(b) from 1 to 19 2 lesions
(c) from 1 to 29 3 lesions
(2) gastric mucosa irritation
(3) hemorrhage points <1 mm
(4) hemorrhage points from 1 to 3 mm
(5) hemorrhage points >3 mm
This scale was used to calculate the following index of gastric damage: [formula]

[2] = in vivo; details: rat, ip
[3] = test system: platelet aggregation (ADP-induced); assay: in vitro anti-platelet aggregant activity (Born's method, ADP); assay type: cell-based, rat; details: Rattus norvegicus, Platelet, ADP 7.08 μmol/l, read-out: Inhibition % (platelet aggregation)
Method: This activity was studied in vitro following Born's method (G. W. R. Born, Nature, 194, 937 (1962)) and inducing platelet aggregation with ADP. […] For the aggregation test, 0.2 ml of platelet rich plasma was mixed with a NaCl solution (0.9%) to which the test substance was added up to a final volume of 0.6 ml. Incubation was fixed at 3 minutes at 27° C. After aggregation was induced with ADP, the course of the aggregation was monitored continuously with an Elvi 840 Aggregometer (Elvi Logos--Milan). The antiaggregant effects were determined by the difference in the light transmission of the sample with respect to that of the ADP control. The test compound was compared with aspirin, which has known antiplatelet aggregant activity (H. J. Weiss et al., J. Clin. Inv., 47, 2169 (1968); Platelet Aggregation and Drugs, edited by L. Caprino and E. C. Rossi, page 235, Academic Press (London), 1974).
Table VI reports the inhibition of platelet aggregation with various doses of the compounds tested at a constant ADP concentration.

[4] = test system: carragenin-induced edema; assay: carragenin-induced edema test (antinflammatory activity); assay type: in vivo, rats
Method: (§1) Preparations of the compound were administered orally and/or parenterally in a suspension in 0.59% carboxymethylcellulose in pH neutral physiological saline.
This effect was evaluated with an experimental model reproducing actue inflammation in rats: the carragenin-induced edema test was used, according to the method of C. A. Winter (G. Pharmac. Exp. Ther., 141, 369 (1963)). Table III reports the compounds tested, their concentrations, administration routes and relative percent edema inhibition.

[5] = test system: p-phenylquinone-induced writhing; assay: p-phenylquinone-induced writhing test (analgesic activity); assay type: in vivo; details: an hour after administration
Method: as §1
The determination was made an hour after administration of the product. The inhibitory effect on abdominal contractions induced by phenyl-p-quinone was calculated as follows: [formula]
Table IV reports the doses, the administration routes and their effectiveness expressed as % protection.

[6] = test system: hyperthermia induced by dry purified beer yeast; assay: antipyretic activity, beer yeast-induced hyperthermia; assay type: in vivo, Wistar strain male albino rats
Method: as §1
This effect was evaluated by inducing hyperthermia in Wistar strain male albino rats with an average weight of 250±10 g, injecting them intraperitoneally with a 10% suspension of dry purified beer yeast (Carlo Erba) in a volume of 10 ml/Kg of body weight, according to the method of S. Wong et al. (J. Pharmac. Exp. Ther., 185 (1), 127 (1973)).

With Cc1ccc(C(=O)c2ccc(CC(=O)NCC(=O)Nc3cccc(C)c3C)n2C)cc1 [Compound 1f] the Mean number lesions ([1]; 50 mg/kg) was 1, the Mean number severity ([1]; 50 mg/kg) was 1 and the Mean number lesions ([1]; 100 mg/kg) was 2. The Mean number severity ([1]; 100 mg/kg) was 3, the Mean number lesions ([1]; 200 mg/kg) was 3 and the Mean number severity ([1]; 200 mg/kg) was 3. It also gave an LD50 [2] of 1100 mg/kg, an inhibition at 1 µg/mL ([3]; 1 γ/ml) of 22% and an inhibition at 5 µg/mL ([3]; 5 γ/ml) of 75%. It also gave an inhibition at 10 µg/mL ([3]; 10 γ/ml) of 90%, an Oedema inhibition % ([4]; i.p., 10 mg/kg, 3 h) of 37.1% and an Oedema inhibition % ([4]; i.p., 10 mg/kg, 6 h) of 33.4%. The Oedema inhibition % ([4]; i.p., 10 mg/kg, 24 h) was 0.0%, the Oedema inhibition % ([4]; i.p., 50 mg/kg, 3 h) was 51.6% and the Oedema inhibition % ([4]; i.p., 50 mg/kg, 6 h) was 53.9%. For the same compound, the Oedema inhibition % ([4]; i.p., 50 mg/kg, 24 h) was 4.2%, the Oedema inhibition % ([4]; i.p., 100 mg/kg, 3 h) was 72.5% and the Oedema inhibition % ([4]; i.p., 100 mg/kg, 6 h) was 70.0%. For the same compound, the Oedema inhibition % ([4]; i.p., 100 mg/kg, 24 h) was 19.1%, the Oedema inhibition % ([4]; os, 10 mg/kg, 3 h) was 32.6% and the Oedema inhibition % ([4]; os, 10 mg/kg, 6 h) was 34.1%. For the same compound, the Oedema inhibition % ([4]; os, 10 mg/kg, 24 h) was 0.0%, the Oedema inhibition % ([4]; os, 50 mg/kg, 3 h) was 49.1% and the Oedema inhibition % ([4]; os, 50 mg/kg, 6 h) was 49.0%. For the same compound, the Oedema inhibition % ([4]; os, 50 mg/kg, 24 h) was 3.4%, the Oedema inhibition % ([4]; os, 100 mg/kg, 3 h) was 69.7% and the Oedema inhibition % ([4]; os, 100 mg/kg, 6 h) was 69.0%. It also gave an Oedema inhibition % ([4]; os, 100 mg/kg, 24 h) of 22.1%, a Protection % ([5]; i.p., 5 mg/kg) of 15.3% and a Protection % ([5]; i.p., 10 mg/kg) of 47.0%. For the same compound, the Protection % ([5]; i.p., 20 mg/kg) was 75.0%, the Protection % ([5]; os, 5 mg/kg) was 18.0% and the Protection % ([5]; os, 10 mg/kg) was 42.1%. For the same compound, the Protection % ([5]; os, 20 mg/kg) was 70.3%, the Temperature decrease % ([6]; i.p., 50 mg/kg, 1 h) was 12.1% and the Temperature decrease % ([6]; i.p., 50 mg/kg, 2 h) was 25.0%. It also gave a Temperature decrease % ([6]; i.p., 50 mg/kg, 3 h) of 29.8%, a Temperature decrease % ([6]; i.p., 75 mg/kg, 1 h) of 16.3% and a Temperature decrease % ([6]; i.p., 75 mg/kg, 2 h) of 30.1%. The Temperature decrease % ([6]; i.p., 75 mg/kg, 3 h) was 35.1%, the Temperature decrease % ([6]; i.p., 100 mg/kg, 1 h) was 38.7% and the Temperature decrease % ([6]; i.p., 100 mg/kg, 2 h) was 43.0%. For the same compound, the Temperature decrease % ([6]; i.p., 100 mg/kg, 3 h) was 40.0%, the Temperature decrease % ([6]; os, 50 mg/kg, 1 h) was 15.1% and the Temperature decrease % ([6]; os, 50 mg/kg, 6 h) was 20.0%. For the same compound, the Temperature decrease % ([6]; os, 50 mg/kg, 24 h) was 28.7%, the Temperature decrease % ([6]; os, 75 mg/kg, 1 h) was 18.2% and the Temperature decrease % ([6]; os, 75 mg/kg, 6 h) was 29.5%. It also gave a Temperature decrease % ([6]; os, 75 mg/kg, 24 h) of 28.7%, a Temperature decrease % ([6]; os, 100 mg/kg, 1 h) of 22.1% and a Temperature decrease % ([6]; os, 100 mg/kg, 6 h) of 32.0%. For the same compound, the Temperature decrease % ([6]; os, 100 mg/kg, 24 h) was 38.1%.

Compound Cc1ccc(C(=O)c2ccc(CC(=O)O)n2C)cc1 [Tolmetin Na.2H2 O, reference compound] has a Mean number lesions ([1]; 50 mg/kg) of 2, a Mean number severity ([1]; 50 mg/kg) of 2 and a Mean number lesions ([1]; 100 mg/kg) of 2.5. For the same compound, the Mean number severity ([1]; 100 mg/kg) was 3.5, the Mean number lesions ([1]; 200 mg/kg) was 3 and the Mean number severity ([1]; 200 mg/kg) was 4. For the same compound, the Oedema inhibition % ([4]; i.p., 10 mg/kg, 3 h) was 33.7%, the Oedema inhibition % ([4]; i.p., 10 mg/kg, 6 h) was 30.1% and the Oedema inhibition % ([4]; i.p., 10 mg/kg, 24 h) was 0.0%. For the same compound, the Oedema inhibition % ([4]; i.p., 50 mg/kg, 3 h) was 47.1%, the Oedema inhibition % ([4]; i.p., 50 mg/kg, 6 h) was 44.0% and the Oedema inhibition % ([4]; i.p., 50 mg/kg, 24 h) was 0.0%. It also gave an Oedema inhibition % ([4]; i.p., 100 mg/kg, 3 h) of 58.3%, an Oedema inhibition % ([4]; i.p., 100 mg/kg, 6 h) of 52.2% and an Oedema inhibition % ([4]; i.p., 100 mg/kg, 24 h) of 5.3%. It also gave an Oedema inhibition % ([4]; os, 10 mg/kg, 3 h) of 32.0%, an Oedema inhibition % ([4]; os, 10 mg/kg, 6 h) of 20.0% and an Oedema inhibition % ([4]; os, 10 mg/kg, 24 h) of 0.0%. For the same compound, the Oedema inhibition % ([4]; os, 50 mg/kg, 3 h) was 46.8%, the Oedema inhibition % ([4]; os, 50 mg/kg, 6 h) was 45.0% and the Oedema inhibition % ([4]; os, 50 mg/kg, 24 h) was 0.0%. It also gave an Oedema inhibition % ([4]; os, 100 mg/kg, 3 h) of 56.1%, an Oedema inhibition % ([4]; os, 100 mg/kg, 6 h) of 54.3% and an Oedema inhibition % ([4]; os, 100 mg/kg, 24 h) of 8.9%. For the same compound, the Protection % ([5]; i.p., 5 mg/kg) was 16.5%, the Protection % ([5]; i.p., 10 mg/kg) was 46.2% and the Protection % ([5]; i.p., 20 mg/kg) was 69.3%. It also gave a Protection % ([5]; os, 5 mg/kg) of 15.0%, a Protection % ([5]; os, 10 mg/kg) of 40.6% and a Protection % ([5]; os, 20 mg/kg) of 62.0%. The Temperature decrease % ([6]; i.p., 50 mg/kg, 1 h) was 16.0%, the Temperature decrease % ([6]; i.p., 50 mg/kg, 2 h) was 19.0% and the Temperature decrease % ([6]; i.p., 50 mg/kg, 3 h) was 31.0%. For the same compound, the Temperature decrease % ([6]; i.p., 75 mg/kg, 1 h) was 20.0%, the Temperature decrease % ([6]; i.p., 75 mg/kg, 2 h) was 29.2% and the Temperature decrease % ([6]; i.p., 75 mg/kg, 3 h) was 34.7%. It also gave a Temperature decrease % ([6]; i.p., 100 mg/kg, 1 h) of 28.0%, a Temperature decrease % ([6]; i.p., 100 mg/kg, 2 h) of 39.1% and a Temperature decrease % ([6]; i.p., 100 mg/kg, 3 h) of 31.3%. The Temperature decrease % ([6]; os, 50 mg/kg, 1 h) was 18.0%, the Temperature decrease % ([6]; os, 50 mg/kg, 6 h) was 20.0% and the Temperature decrease % ([6]; os, 50 mg/kg, 24 h) was 29.5%. The Temperature decrease % ([6]; os, 75 mg/kg, 1 h) was 20.0%, the Temperature decrease % ([6]; os, 75 mg/kg, 6 h) was 26.0% and the Temperature decrease % ([6]; os, 75 mg/kg, 24 h) was 27.0%. It also gave a Temperature decrease % ([6]; os, 100 mg/kg, 1 h) of 32.0%, a Temperature decrease % ([6]; os, 100 mg/kg, 6 h) of 30.9% and a Temperature decrease % ([6]; os, 100 mg/kg, 24 h) of 47.2%.
